Laboratory results taken from article PMC7600264, “Quasi-Irreversible Inhibition of CYP2D6 by Berberine” (Pharmaceutics, 2020).
Like-named read-outs stand apart in the source and are kept apart here.

What was measured:
CYP enzymes = assay: Direct CYP inhibition assay using pooled HLM, all CYP enzymes tested; format: in vitro ADME, human; details: read-out: IC50 values, range over all CYP enzymes tested (pan-CYP inhibitory activities)
Protocol: (§1) The enzyme reactions were initiated by adding NADPH (1 mM), and the mixtures were incubated at 37 °C for 5 min in a shaking water bath (100 rpm). The reaction was terminated by adding ice-cold acetonitrile (ACN) containing CBZ (100 nM) and 4-methyl-umbelliferone (300 nM) as internal standards (IS).
(§2) The chromatographic separation was performed on an Agilent 1200 series HPLC system (Agilent Technologies, Santa Clara, CA, USA) equipped with an Atlantis^TM dC18 column (2.1 × 50 mm, 3 µm; Waters Corporation, Milford, MA, USA) with a SecuityGuard^TM C18 guard column (2.0 × 4.0 mm; Phenomenex, Torrance, CA, USA). The mobile phases consisted of double-deionized water (DDW) containing 0.1% (v/v) of formic acid (A) and ACN containing 0.1% (v/v) formic acid (B). […] The sample injection volume was 10 µL, and the total run time was 9.0 min. The column and auto-sampler compartments were maintained at 30 °C and 10 °C, respectively, throughout the analysis. The detection was performed using an API4000 Q-TRAP system equipped with a Turbo V Ion Spray^TM source (Applied Biosystems, Foster City, CA, USA). […] The samples were analyzed via multiple reaction monitoring (MRM) mode. […]

CYP1A2 = target: T1, CYP1A2 (Homo sapiens, UniProt P05177); assay: Direct CYP inhibition assay using pooled HLM
T1 sequence (P05177 1-516): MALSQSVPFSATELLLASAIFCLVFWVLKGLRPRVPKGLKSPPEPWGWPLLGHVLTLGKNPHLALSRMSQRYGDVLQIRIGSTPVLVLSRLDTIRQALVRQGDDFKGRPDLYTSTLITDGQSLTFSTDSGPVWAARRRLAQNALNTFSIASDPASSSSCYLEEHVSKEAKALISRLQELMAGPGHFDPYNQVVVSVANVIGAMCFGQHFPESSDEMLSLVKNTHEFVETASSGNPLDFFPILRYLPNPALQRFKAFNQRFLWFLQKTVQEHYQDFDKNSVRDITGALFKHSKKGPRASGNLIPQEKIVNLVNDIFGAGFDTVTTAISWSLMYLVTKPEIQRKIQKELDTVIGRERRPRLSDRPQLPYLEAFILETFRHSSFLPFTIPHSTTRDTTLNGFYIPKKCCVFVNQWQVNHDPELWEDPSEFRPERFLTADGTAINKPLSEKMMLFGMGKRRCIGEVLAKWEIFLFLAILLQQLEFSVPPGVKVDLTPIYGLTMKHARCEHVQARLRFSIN
Protocol: as §1
(§3) The chromatographic separation was performed on an Agilent 1200 series HPLC system (Agilent Technologies, Santa Clara, CA, USA) equipped with an Atlantis^TM dC18 column (2.1 × 50 mm, 3 µm; Waters Corporation, Milford, MA, USA) with a SecuityGuard^TM C18 guard column (2.0 × 4.0 mm; Phenomenex, Torrance, CA, USA). The mobile phases consisted of double-deionized water (DDW) containing 0.1% (v/v) of formic acid (A) and ACN containing 0.1% (v/v) formic acid (B). […] The sample injection volume was 10 µL, and the total run time was 9.0 min. The column and auto-sampler compartments were maintained at 30 °C and 10 °C, respectively, throughout the analysis. The detection was performed using an API4000 Q-TRAP system equipped with a Turbo V Ion Spray^TM source (Applied Biosystems, Foster City, CA, USA). The operating conditions were optimized as follows: ionization voltage: 5500 V for positive-ion mode and −4500 V for negative-ion mode; ion source temperature: 550 °C; nebulizing gas flow: 50 L/min; auxiliary gas flow: 40 L/min; and curtain gas flow: 30 L/min. The samples were analyzed via multiple reaction monitoring (MRM) mode. […] The data acquisition and processing were performed using Analyst^TM software (version 1.5.2; Applied Biosystems, Foster City, CA, USA).

CYP2A6 = target: T2, CYP2A6 (Homo sapiens, UniProt P11509); assay: Direct CYP inhibition assay using pooled HLM
T2 sequence (P11509 1-494): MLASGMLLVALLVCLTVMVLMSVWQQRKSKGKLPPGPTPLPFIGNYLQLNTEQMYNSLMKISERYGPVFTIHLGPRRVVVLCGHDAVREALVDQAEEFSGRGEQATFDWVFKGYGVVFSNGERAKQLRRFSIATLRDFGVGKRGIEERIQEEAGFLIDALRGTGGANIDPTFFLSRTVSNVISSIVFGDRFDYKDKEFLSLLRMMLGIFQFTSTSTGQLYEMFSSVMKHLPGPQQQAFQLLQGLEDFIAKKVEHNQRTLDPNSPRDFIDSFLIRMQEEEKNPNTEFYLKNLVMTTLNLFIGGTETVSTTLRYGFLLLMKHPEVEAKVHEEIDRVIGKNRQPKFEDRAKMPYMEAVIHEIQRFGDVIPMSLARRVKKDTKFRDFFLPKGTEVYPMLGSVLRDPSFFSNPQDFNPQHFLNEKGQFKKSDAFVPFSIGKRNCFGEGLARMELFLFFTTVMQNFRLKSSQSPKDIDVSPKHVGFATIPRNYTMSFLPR
Protocol: as §1, §3

CYP2B6 = target: T3, CYP2B6 (Homo sapiens, UniProt P20813); assay: Direct CYP inhibition assay using pooled HLM
T3 sequence (P20813 1-491): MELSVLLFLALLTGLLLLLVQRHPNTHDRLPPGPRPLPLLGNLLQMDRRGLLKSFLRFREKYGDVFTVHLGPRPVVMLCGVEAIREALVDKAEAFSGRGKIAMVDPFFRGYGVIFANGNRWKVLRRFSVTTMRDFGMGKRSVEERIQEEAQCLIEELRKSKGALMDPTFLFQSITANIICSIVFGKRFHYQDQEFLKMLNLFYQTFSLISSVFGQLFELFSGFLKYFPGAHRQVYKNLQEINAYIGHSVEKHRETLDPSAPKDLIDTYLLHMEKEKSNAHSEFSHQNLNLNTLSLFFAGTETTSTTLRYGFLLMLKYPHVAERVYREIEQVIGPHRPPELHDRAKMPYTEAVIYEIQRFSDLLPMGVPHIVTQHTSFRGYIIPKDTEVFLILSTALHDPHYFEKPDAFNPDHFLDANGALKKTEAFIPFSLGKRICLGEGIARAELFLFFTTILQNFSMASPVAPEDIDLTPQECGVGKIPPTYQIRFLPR
Protocol: as §1, §3

CYP2C8 = target: T4, CYP2C8 (Homo sapiens, UniProt P10632); assay: Direct CYP inhibition assay using pooled HLM
T4 sequence (P10632 1-490): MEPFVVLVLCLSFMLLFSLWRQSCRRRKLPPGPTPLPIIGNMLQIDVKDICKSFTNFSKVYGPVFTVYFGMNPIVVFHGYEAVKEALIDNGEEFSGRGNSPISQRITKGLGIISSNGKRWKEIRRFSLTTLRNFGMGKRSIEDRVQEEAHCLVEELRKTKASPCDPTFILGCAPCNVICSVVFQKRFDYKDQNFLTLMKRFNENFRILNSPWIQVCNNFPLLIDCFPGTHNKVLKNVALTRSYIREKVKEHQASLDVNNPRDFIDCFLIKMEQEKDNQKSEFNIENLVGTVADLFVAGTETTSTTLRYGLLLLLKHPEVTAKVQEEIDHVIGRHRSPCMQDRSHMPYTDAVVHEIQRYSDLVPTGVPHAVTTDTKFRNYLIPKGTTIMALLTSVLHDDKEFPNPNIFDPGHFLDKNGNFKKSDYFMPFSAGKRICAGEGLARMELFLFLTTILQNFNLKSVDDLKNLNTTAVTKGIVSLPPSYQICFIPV
Protocol: as §1, §3

CYP2C9 = CYP2C9 (Homo sapiens, UniProt P11712); assay: Direct CYP inhibition assay using pooled HLM
Sequence of CYP2C9 (P11712 whole entry): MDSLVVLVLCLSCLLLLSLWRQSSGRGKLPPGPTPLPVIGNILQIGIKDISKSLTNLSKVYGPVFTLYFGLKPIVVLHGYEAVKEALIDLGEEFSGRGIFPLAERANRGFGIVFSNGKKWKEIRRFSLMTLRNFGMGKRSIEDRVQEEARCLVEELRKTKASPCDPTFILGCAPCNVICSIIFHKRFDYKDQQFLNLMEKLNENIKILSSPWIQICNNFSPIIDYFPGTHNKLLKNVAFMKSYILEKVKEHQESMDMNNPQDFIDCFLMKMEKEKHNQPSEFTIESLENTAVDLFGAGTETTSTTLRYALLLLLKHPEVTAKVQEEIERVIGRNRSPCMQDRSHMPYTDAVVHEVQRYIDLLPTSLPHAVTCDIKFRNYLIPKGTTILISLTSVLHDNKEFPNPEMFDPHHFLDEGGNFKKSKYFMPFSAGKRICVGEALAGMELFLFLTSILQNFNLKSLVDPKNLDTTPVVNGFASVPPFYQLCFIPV
Protocol: as §1, §3

CYP2C19 = CYP2C19 (Homo sapiens, UniProt P33261); assay: Direct CYP inhibition assay using pooled HLM
Sequence of CYP2C19 (P33261 whole entry): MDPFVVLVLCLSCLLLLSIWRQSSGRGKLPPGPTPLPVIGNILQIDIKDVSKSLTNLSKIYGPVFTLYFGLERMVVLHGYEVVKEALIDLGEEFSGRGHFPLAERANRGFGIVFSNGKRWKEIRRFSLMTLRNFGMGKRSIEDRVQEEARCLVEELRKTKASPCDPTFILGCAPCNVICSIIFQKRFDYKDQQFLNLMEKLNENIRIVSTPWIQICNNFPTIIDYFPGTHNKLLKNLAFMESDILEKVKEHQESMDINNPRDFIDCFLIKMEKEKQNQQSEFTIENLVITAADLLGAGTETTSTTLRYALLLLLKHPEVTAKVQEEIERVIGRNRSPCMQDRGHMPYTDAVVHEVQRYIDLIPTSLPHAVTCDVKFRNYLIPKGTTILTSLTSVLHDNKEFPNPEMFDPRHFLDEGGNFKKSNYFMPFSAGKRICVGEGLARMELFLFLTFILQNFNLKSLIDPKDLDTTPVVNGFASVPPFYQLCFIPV
Protocol: as §1, §3

CYP2D6 [1] = target: T5, CYP2D6 (Homo sapiens, UniProt P10635); assay: Direct CYP inhibition assay using pooled HLM
T5 sequence (P10635 whole entry): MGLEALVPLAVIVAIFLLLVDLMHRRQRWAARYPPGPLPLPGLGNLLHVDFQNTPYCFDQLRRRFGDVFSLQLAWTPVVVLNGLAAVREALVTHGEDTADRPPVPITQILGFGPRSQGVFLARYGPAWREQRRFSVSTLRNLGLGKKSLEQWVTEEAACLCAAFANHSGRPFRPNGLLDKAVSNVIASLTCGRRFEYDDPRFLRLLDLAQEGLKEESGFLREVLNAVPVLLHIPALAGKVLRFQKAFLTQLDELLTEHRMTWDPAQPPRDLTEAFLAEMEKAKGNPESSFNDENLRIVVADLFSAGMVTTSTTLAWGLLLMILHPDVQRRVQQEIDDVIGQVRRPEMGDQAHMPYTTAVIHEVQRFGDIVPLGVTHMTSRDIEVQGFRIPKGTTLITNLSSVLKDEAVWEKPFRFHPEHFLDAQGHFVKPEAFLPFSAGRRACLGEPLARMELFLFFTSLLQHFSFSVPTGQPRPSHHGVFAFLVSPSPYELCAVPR
Protocol: as §1, §3

CYP2E1 = CYP2E1 (Homo sapiens, UniProt P05181); assay: Direct CYP inhibition assay using pooled HLM
Sequence of CYP2E1 (P05181 whole entry): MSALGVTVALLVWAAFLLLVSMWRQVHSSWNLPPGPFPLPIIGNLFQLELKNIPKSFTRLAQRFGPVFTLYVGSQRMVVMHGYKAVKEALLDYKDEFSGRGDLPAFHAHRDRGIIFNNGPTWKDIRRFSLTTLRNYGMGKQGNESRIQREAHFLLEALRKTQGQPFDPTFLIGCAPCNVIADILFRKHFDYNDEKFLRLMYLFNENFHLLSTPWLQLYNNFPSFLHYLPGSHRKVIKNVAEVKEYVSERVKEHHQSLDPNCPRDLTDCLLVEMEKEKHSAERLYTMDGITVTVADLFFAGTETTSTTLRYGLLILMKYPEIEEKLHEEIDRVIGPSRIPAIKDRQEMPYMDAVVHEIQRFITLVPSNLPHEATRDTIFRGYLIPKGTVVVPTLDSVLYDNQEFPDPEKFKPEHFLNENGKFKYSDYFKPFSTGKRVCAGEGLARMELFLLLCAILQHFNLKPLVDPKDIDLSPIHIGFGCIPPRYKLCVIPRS
Protocol: as §1, §3

CYP3A4 = CYP3A4 (Homo sapiens, UniProt P08684); assay: Direct CYP inhibition assay using pooled HLM; details: for IC50: direct inhibition, 95% confidence intervals in parentheses
Sequence of CYP3A4 (P08684 whole entry): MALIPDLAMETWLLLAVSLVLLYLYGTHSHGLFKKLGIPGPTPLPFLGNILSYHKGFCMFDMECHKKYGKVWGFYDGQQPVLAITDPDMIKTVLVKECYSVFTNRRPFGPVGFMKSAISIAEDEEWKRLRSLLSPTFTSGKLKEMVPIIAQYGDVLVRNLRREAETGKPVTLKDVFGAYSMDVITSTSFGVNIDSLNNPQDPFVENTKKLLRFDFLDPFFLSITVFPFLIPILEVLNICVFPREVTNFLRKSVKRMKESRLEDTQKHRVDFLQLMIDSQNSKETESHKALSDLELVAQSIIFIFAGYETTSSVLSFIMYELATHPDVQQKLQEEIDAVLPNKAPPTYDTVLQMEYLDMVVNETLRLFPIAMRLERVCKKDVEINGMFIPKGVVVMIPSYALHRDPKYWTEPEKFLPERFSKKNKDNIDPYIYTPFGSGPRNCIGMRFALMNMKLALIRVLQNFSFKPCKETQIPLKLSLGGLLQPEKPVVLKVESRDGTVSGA
Protocol: as §1, §3

CYP2D6 [2] = target: T5, CYP2D6; assay: Metabolism-dependent CYP2D6 inhibition assay (IC50 shift) using pooled HLM; details: for MDI (metabolism-dependent inhibition) of CYP2D6 (in words): pre-incubation with NADPH
Protocol: Pre-incubation was performed in pooled HLM (0.2 mg/mL) added with BBR, THB, TFD, or DMB, or rhCYP2D6 (10 pmol/mL) added with BBR, with or without NADPH (1 mM) in phosphate buffer (0.1 M; pH 7.4) for 30 min. Then, the CYP2D6 substrate (5 µM of dextromethorphan) and NADPH (1 mM) were added to the mixture and incubated for another 10 min. All incubations were carried out at 37 °C in a shaking water bath (100 rpm) using eight-well tube strips placed in an 8 × 12 rack, where the final volume of each reaction mixture was 200 µL. […] The enzyme reactions were quenched by adding an aliquot (200 µL) of ice-cold ACN containing CBZ (100 nM) as an IS. The samples were centrifuged, and the concentration of CYP2D6 metabolite (i.e., dextrorphan, produced by O-demethylation of dextromethorphan) in supernatants were analyzed using the LC-MS/MS method described in Section 2.2.

[3] = system: CYP enzymes (range over all CYP enzymes tested); assay: Direct CYP inhibition assay using pooled HLM, all CYP enzymes tested; format: in vitro ADME, human; details: human, pooled human liver microsomes, pH 7.4, read-out: IC50 values, range over all CYP enzymes tested (pan-CYP inhibitory activities)
Protocol: as §1, §2

[4] = Metabolic stability and metabolite formation of BBR in pooled HLM; details: BBR 1 µM in pooled HLM with NADPH-generating system, mean ± SD
Protocol: To evaluate NADPH-dependent metabolism, BBR (1 µM) was incubated with pooled HLM (1 mg/mL) in the presence of the NADPH-regenerating system (1 mM of NADP^+, 5 mM of G6P, and 1 U/mL of G6PDH) to be a final volume of 200 µL. The reactions were quenched by adding the same volume of ice-cold ACN containing CBZ (100 nM) at 0, 7.5, 15, 30, 60, and 120 min of incubation. The incubation mixtures were centrifuged at 1000× g for 20 min at 4 °C, and the supernatants were analyzed by the LC-MS/MS system described in Section 2.2.
Meanwhile, to identify the known metabolites of BBR, an aliquot (5 µL) of the supernatant was injected into an accurate-MS system consisting of an Agilent 6530 Q-TOF LC/MS equipped with dual AJS ESI ion source (Agilent Technologies) and Agilent 1200 series HPLC system (Agilent Technologies). Chromatographic separations were performed on an Agilent Eclipse Plus C18 column (150 × 2.1 mm, 3.5 µm; Agilent Technologies) by gradient elution with a binary mobile phase consisting of DDW with 0.1% (v/v) formic acid (A) and ACN with 0.1% (v/v) formic acid (B) at a flow rate of 0.2 mL/min, where the mobile phase B was set as follows: 2% at 0 min, 20% at 15 min, and 30% at 20–25 min, followed by re-equilibration for 3 min.
In vitro metabolic stability parameters, including half-life (t1/2) and microsomal intrinsic clearance (CLint,mic), were determined according to our previous report [32]. The degradation t1/2 values of the microsomal stability studies were calculated using the following Equation (2):(2) t1/2=0.693/k, where k represents the first-order degradation rate constant. The k values were estimated by fitting a one-phase exponential decay model to the parent drug remaining (%) vs. incubation time plots using GraphPad Prism 5.0 (GraphPad Software Inc., San Diego, CA, USA).
The CLint,mic was determined using the in vitro half-life approach.

[5] = format: in vitro ADME, human; details: human, 1 µM
Protocol: Table 3. Putative M1 metabolite produced in pooled HLM incubated with thalifendine or
Precursor molecules Incubation time (min)a M1 signal at m/z 310 (103 × cps)b
Demethyleneberberine 0 107 ± 3
a Thalifendine or demethyleneberberine (1 μM) was incubated with pooled HLM in the presence of
NADPH-generating system; b Each value represents the mean ± SD for three separate samples. […]

[6] = IC50 CYP3A4 (MDZ), substrate MDZ
[7] = IC50 CYP3A4 (TST), substrate TST

COc1ccc2c(c1O)CN1CCc3cc4c(cc3C1C2)OCO4 (stereo not drawn) [TRB, Tetrahydroberberrubine·acetate]
IC50 (CYP enzymes): 2.7 to 9.6 µM
IC50 (CYP1A2; microsomes): 6.9 µM
IC50 (CYP2A6; microsomes): 4.7 µM
IC50 (CYP2B6; read-out: IC50 CYP2B6, pooled HLM, direct inhibition, 95% confidence intervals in parentheses): 9.6 µM
IC50 (CYP2C8; microsomes): 9.5 µM
IC50 (CYP2C9; microsomes): 6.5 µM
IC50 (CYP2C19; read-out: IC50 CYP2C19, pooled HLM, direct inhibition, 95% confidence intervals in parentheses): 5.4 µM
IC50 (CYP2D6 [1]; microsomes): 3.4 µM
IC50 (CYP2E1; read-out: IC50 CYP2E1, pooled HLM, direct inhibition, 95% confidence intervals in parentheses): 2.7 µM

COc1ccc2c(c1OC)CN1CCc3cc4c(cc3C1C2)OCO4 (stereo not drawn) [THB, tetrahydroberberine]
Inhibition of CYP1A2 (in words) (CYP1A2; pooled HLM, up to 100 µM): not markedly inhibited
Inhibition of CYP2A6 (in words) (CYP2A6; pooled HLM, up to 100 µM): not markedly inhibited
Inhibition of CYP2B6 (in words) (CYP2B6; pooled HLM, up to 100 µM): not markedly inhibited
Inhibition of CYP2C8 (in words) (CYP2C8; pooled HLM, up to 100 µM): not markedly inhibited
Inhibition of CYP2C9 (in words) (CYP2C9; pooled HLM, up to 100 µM): not markedly inhibited
Inhibition of CYP2C19 (in words) (CYP2C19; pooled HLM, up to 100 µM): not markedly inhibited
IC50 (CYP2D6 [1]; read-out: IC50 CYP2D6, pooled HLM, direct inhibition, substrate dextromethorphan, 95% confidence intervals in parentheses): 0.97 µM
Inhibition of CYP2E1 (in words) (CYP2E1; pooled HLM, up to 100 µM): not markedly inhibited
Inhibition of CYP3A4 (in words) (CYP3A4; up to 100 µM, substrates MDZ and TST): not markedly inhibited
MDI (metabolism-dependent inhibition) of CYP2D6 (in words) (CYP2D6 [2]; pooled HLM): exhibited MDI
Fold reduction in IC50 against CYP2D6 (IC50 shift) (CYP2D6 [2]; pooled HLM, pre-incubation with vs without NADPH): 2.2 fold
IC50 (CYP2D6 [2]; read-out: IC50 against CYP2D6, pre-incubation with NADPH, pooled HLM, 30 min pre-incubation with NADPH): 0.306 µM
IC50 (CYP2D6 [2]; read-out: IC50 against CYP2D6, pre-incubation without NADPH, pooled HLM, 30 min pre-incubation without NADPH): 0.661 µM

COc1ccc2cc3[n+](cc2c1O)CCc1cc2c(cc1-3)OCO2 [BRB, berberrubine]
IC50 at 5 min [3]: 17 to 96 µM
IC50 (CYP1A2): 51 µM
IC50 (CYP2A6): 17 µM
IC50 (CYP2B6): 96 µM
IC50 (CYP2C8): 72 µM
IC50 (CYP2C9): 57 µM
IC50 (CYP2C19): 49 µM
IC50 (CYP2D6 [1]): 45 µM
IC50 (CYP2E1): 34 µM
IC50 (CYP3A4; [6]): 28 µM
IC50 (CYP3A4; [7]): 45 µM
Concentration in incubation mixture (elimination of BBR and formation of its metabolites) ([4]; 0 min): 5.4 ± 0.1 nM
Concentration in incubation mixture (elimination of BBR and formation of its metabolites) ([4]; 7.5 min): 5.6 ± 0.0 nM
Concentration in incubation mixture (elimination of BBR and formation of its metabolites) ([4]; 15 min): 5.8 ± 0.1 nM
Concentration in incubation mixture (elimination of BBR and formation of its metabolites) ([4]; 30 min): 6.0 ± 0.1 nM
Concentration in incubation mixture (elimination of BBR and formation of its metabolites) ([4]; 60 min): 6.1 ± 0.0 nM
Concentration in incubation mixture (elimination of BBR and formation of its metabolites) ([4]; 120 min): 6.2 ± 0.0 nM

COc1c(O)ccc2cc3[n+](cc12)CCc1cc2c(cc1-3)OCO2 [TFD, thalifendine]
M1 signal at m/z 310 ([5]; 0 min): 6 ± 1 103 × cps
M1 signal at m/z 310 ([5]; 30 min): 2200 ± 125 103 × cps
IC50 (CYP1A2): > 100 µM
IC50 (CYP2A6): > 100 µM
IC50 (CYP2B6): > 100 µM
IC50 (CYP2C8): > 100 µM
IC50 (CYP2C9): > 100 µM
IC50 (CYP2C19): > 100 µM
IC50 (CYP2D6 [1]): 28 µM
IC50 (CYP2E1): 32 µM
IC50 (CYP3A4; [6]): > 100 µM
IC50 (CYP3A4; [7]): > 100 µM
Concentration in incubation mixture (elimination of BBR and formation of its metabolites) ([4]; 0 min): 5.4 ± 0.1 nM
Concentration in incubation mixture (elimination of BBR and formation of its metabolites) ([4]; 7.5 min): 20.9 ± 0.4 nM
Concentration in incubation mixture (elimination of BBR and formation of its metabolites) ([4]; 15 min): 33.3 ± 0.6 nM
Concentration in incubation mixture (elimination of BBR and formation of its metabolites) ([4]; 30 min): 44.3 ± 1.0 nM
Concentration in incubation mixture (elimination of BBR and formation of its metabolites) ([4]; 60 min): 50.4 ± 0.7 nM
Concentration in incubation mixture (elimination of BBR and formation of its metabolites) ([4]; 120 min): 49.3 ± 1.0 nM
IC50 (CYP2D6 [2]; IC50 against CYP2D6, pre-incubation with NADPH, pooled HLM, 30 min pre-incubation with NADPH): 6.49 µM
IC50 (CYP2D6 [2]; IC50 against CYP2D6, pre-incubation without NADPH, pooled HLM, 30 min pre-incubation without NADPH): 20.6 µM
IC50 shift at 10 min (CYP2D6 [2]; human, pooled human liver microsomes, pH 7.4, probe dextromethorphan (5 µM)): 3.2
MDI (metabolism-dependent inhibition) of CYP2D6 (in words) (CYP2D6 [2]; pooled HLM): exhibited MDI

demethylene-TFD [M1]
M1 (m/z = 310) signal formed from BBR ([4]; 0 min): 1.3 ± 0.25 1000 × cps
M1 (m/z = 310) signal formed from BBR ([4]; 7.5 min): 28 ± 0.66 1000 × cps
M1 (m/z = 310) signal formed from BBR ([4]; 15 min): 80 ± 0.31 1000 × cps
M1 (m/z = 310) signal formed from BBR ([4]; 30 min): 220 ± 2.6 1000 × cps
M1 (m/z = 310) signal formed from BBR ([4]; 60 min): 540 ± 15 1000 × cps
M1 (m/z = 310) signal formed from BBR ([4]; 120 min): 1100 ± 26 1000 × cps

COc1cc2c(cc1O)CC[n+]1cc3c(OC)c(OC)ccc3cc1-2 [JTZ, jatrorrhizine]
IC50 (CYP1A2): > 100 µM
IC50 (CYP2A6): > 100 µM
IC50 (CYP2B6): > 100 µM
IC50 (CYP2C8): 26 µM
IC50 (CYP2C9): > 100 µM
IC50 (CYP2C19): > 100 µM
IC50 (CYP2D6 [1]): 10 µM
IC50 (CYP2E1): 11 µM
Concentration in incubation mixture (elimination of BBR and formation of its metabolites) ([4]; 0 min): 10.4 ± 0.3 nM
Concentration in incubation mixture (elimination of BBR and formation of its metabolites) ([4]; 7.5 min): 10.7 ± 0.1 nM
Concentration in incubation mixture (elimination of BBR and formation of its metabolites) ([4]; 15 min): 10.9 ± 0.3 nM
Concentration in incubation mixture (elimination of BBR and formation of its metabolites) ([4]; 30 min): 10.5 ± 0.3 nM
Concentration in incubation mixture (elimination of BBR and formation of its metabolites) ([4]; 60 min): 10.0 ± 0.2 nM
Concentration in incubation mixture (elimination of BBR and formation of its metabolites) ([4]; 120 min): 9.6 ± 0.2 nM
